Measured values from the NIST ThermoML archive (doi:10.1021/je501033z).
Several values for one entry are separate records, joined by “and”; a condition that tells them apart may be missing. Identical values can stand only once. ± gives the expanded uncertainty stated by the source.

Conditions: Liquid, Closed cell (Static) method

O [water]
Conditions	vapor or sublimation pressure
279.48 K	0.953 ± 0.031 kPa
286.16 K	1.508 ± 0.031 kPa
291.39 K	2.094 ± 0.032 kPa
293.14 K	2.337 ± 0.032 kPa
296.31 K	2.839 ± 0.032 kPa
296.32 K	2.834 ± 0.032 kPa
298.81 K	3.288 ± 0.032 kPa
301.37 K	3.827 ± 0.033 kPa
303.57 K	4.36 ± 0.033 kPa
307.73 K	5.507 ± 0.034 kPa
308.26 K	5.666 ± 0.034 kPa
312.87 K	7.275 ± 0.035 kPa
313.07 K	7.345 ± 0.035 kPa
314.62 K	7.977 ± 0.036 kPa
318.13 K	9.585 ± 0.038 kPa and 9.578 ± 0.038 kPa
322.99 K	12.26 ± 0.04 kPa
323.1 K	12.32 ± 0.04 kPa
323.17 K	12.36 ± 0.04 kPa
328.14 K	15.75 ± 0.045 kPa
328.88 K	16.31 ± 0.045 kPa

CO [methanol]
Conditions	vapor or sublimation pressure [kPa]
274.15 K	4.252 ± 0.04
278.15 K	5.501 ± 0.043
283.15 K	7.411 ± 0.047
293.15 K	13 ± 0.061
303.15 K	21.86 ± 0.086
313.15 K	35.43 ± 0.13
323.15 K	55.54 ± 0.19
333.15 K	84.93 ± 0.29
343.15 K	125.74 ± 8
353.15 K	181.56 ± 8
363.15 K	256.27 ± 8
373.15 K	354.35 ± 8.1
383.15 K	480.82 ± 8.1
393.15 K	641.27 ± 8.2
403.15 K	841.83 ± 8.4
413.15 K	1089.2 ± 8.6
